Test results published in patent US20120264817A1, “SOLUBILIZED FORMULATION OF DOCETAXEL WITHOUT TWEEN 80” (priority 2007, published 2012).

How the values were obtained:
[1] = solubility studies with docetaxel in solvents/excipients; settings: glycofurol, organic solvent or mixture
From the text: In some instances a solubilizer can provide sufficient degree of dissolution that a separate hydrotrope or other solubilization aid is not needed, but this is generally not the case (i.e. a separate hydrotrope is usually desirable). […] The concentration of drug in solubilizer varies depending on the lipophilicity of drug. […] We have conducted the solubility studies in these excipients to understand how different excipients containing different functional groups are contributing to the solubility of docetaxel. A solubilizer can also act as a hydrotrope (on dilution with infusion fluid) if it is used in the sufficiently large quantities. […] In the table below and the rest of this specification, the terms “solubilizer” and “hydrotrope” will be used with reference to concentrates (both initial and intermediate) unless specifically indicated otherwise or the context so requires.

[2] = physical stability (onset of precipitation) of initial and final dilutions of docetaxel formulations; type: physicochemical
Procedure: Observations: • 1. The concentrate turns waxy and viscous when stored at temperature below the room temperature, i.e., 22° C. To disperse this viscous mass, a large amount of WFI is needed to make the system suitable for subsequent dilution. So the first step of making a 10 mg/ml solution cannot be achieved with this liquid concentrate. • 2. To achieve a primary dilution of docetaxel of 10 mg/ml, the above concentrate was heated in a water bath to form a viscous liquid, and then diluted with 8 ml of water for injection. The primary dilution is stable for a period of not less than 8 hours, which was a stability condition stipulated in the innovators product. This solution, when further diluted with NS, achieves the targeted concentration range of 0.3-0.74 mg/ml of docetaxel in the final solution for administration. This solution is stable for a period of 24 hours as opposed to the stability of 4 hours with innovators product. In this example, we have achieved the target concentration of docetaxel for administration without the presence of polysorbate 80. • 3.
The concentrate is liquid at room temperature and turned waxy only when stored at 5° C. or below, but turned back to free flowing liquid in 5 minutes when kept at room temperature. • 2. During the initial dilution step to get 10 mg/ml, the contents of the vial turned into a thixotropic liquid within the vial. […]

[3] = docetaxel as marketed by Sanofi-Aventis; cited from earlier work

Structure (SMILES): CC(=O)O[C@@]12CO[C@@H]1C[C@H](O)[C@@]1(C)C(=O)[C@H](O)C3=C(C)[C@@H](OC(=O)[C@H](O)[C@@H](NC(=O)OC(C)(C)C)c4ccccc4)C[C@@](O)([C@@H](OC(=O)c4ccccc4)[C@H]21)C3(C)C [docetaxel, (2R,3S)—N-carboxy-3-phenylisoserine, N-tert-butyl ester, 13-ester with 5beta-20-epoxy-1,2α,4,7β,10β,13α-hexahyciroxytax-11-en-9-one 4-acetate 2-benzoate, trihydrate]
- solubility [1]: ~200 mg/mL
- behaviour on dilution to administration concentrations ([2]; about 10 mg/ml solution in glycofurol, diluted with IV fluids): will not precipitate out
- behaviour on dilution to administration concentrations ([2]; about 200 mg/ml liquid concentrate in glycofurol, diluted with water): precipitates out
- lipophilicity [3]: highly lipophilic
- solubility in water [3]: practically insoluble in water
